According to EP0414952A1, “Dithiolane derivatives” (NIHON NOHYAKU CO., LTD., priority 1989, dated 1991):

System: carbon tetrachloride-induced hepatic disorders
Test: Effect of inhibiting carbon tetrachloride-induced hepatic disorders
Format: in vivo
Conditions: male mice of dd strain, mean of 5 mice; for Hepatic Disorder index: 30 mg/kg orally in olive oil 6 hours before carbon tetrachloride 0.05 ml/kg orally, sacrificed 24 hours after, visual score 0 (healthy liver) to 6 (heavy disorder); for p-GPT(K.U.): plasma glutamic-pyruvic transaminase activity, Reitman-Frankel method, 30 mg/kg orally 6 hours before carbon tetrachloride 0.05 ml/kg orally, 24 hours after, values above 2,100 counted as 2,100
Protocol: Effect of inhibiting carbon tetrachloride-induced hepatic disorders A test compound was dissolved or suspended in olive oil and the resulting solution or suspension was orally administered to male mice (6 week age) of dd strain in a dose of 30 mg/kg. Six hours after the administration, carbon tetrachloride was orally administered to the mice in a dose of 0.05 ml/kg. The mice were sacrificed 24 hours after the administration of carbon tetrachloride. Degree of hepatic disorders was visually examined. On the other hand, blood was collected when they were sacrificed and plasma was obtained by centrifugation. Plasma glutamic-pyruvic transaminase (GPT) activity was determined according to the Reitman-Frankel method and the activity was expressed by Karmen Unit (K.U.). The hepatic disorder index is evaluated as below. [table] Five (5) mice were used in each group and the results are shown by a mean value. Further with respect to GPT activity, no further measurement was conducted with the case showing more than 2,100 units but for brevity, it was calculated as 2,100 units.

| Compound | Hepatic Disorder index | p-GPT(K.U.) |
| --- | --- | --- |
| CN(C)C1SC(=C2C(=O)CCCC2=O)SC1N(C)C (centres unmarked) [Compound No. 1, 2-((4,5-bis(dimethylamino)-1,3-dithiolan)-2-ylidene)-1,3-dioxocyclohexane] | 0.6 | 17 |
| O=C1CCCC(=O)C1=C1SC(N2CCOCC2)C(N2CCOCC2)S1 (centres unmarked) [Compound No. 2] | 0.5 | 12 |
| CN(C)C1SC(=C2C(=O)CC(C)(C)CC2=O)SC1N(C)C (centres unmarked) [Compound No. 3] | 1.6 | 49 |
| CCC(=O)OC1SC(=C2C(=O)CCCC2=O)SC1N(C)C (centres unmarked) [Compound No. 7] | 0 | 15 |
| CCOC(=O)OC1SC(=C2C(=O)CCCC2=O)SC1N(C)C (centres unmarked) [Compound No. 8] | 0 | 18 |
| CN(C)C1SC(=C2C(=O)CC(C)(C)CC2=O)SC1O (centres unmarked) [Compound No. 13] | 0.4 | 157 |
| CCN1CCN(C2SC(=C3C(=O)CC(C)(C)CC3=O)SC2OC(C)=O)CC1 (centres unmarked) [Compound No. 19] | 1.0 | 297 |
| CC(=O)OC1SC(=C2C(=O)CC(c3ccc(C)cc3)CC2=O)SC1N(C)C (centres unmarked) [Compound No. 30] | 0.5 | 229 |
| CC(=O)OC1SC(=C2C(=O)CC(c3ccco3)CC2=O)SC1N1CCN(C)CC1 (centres unmarked) [Compound No. 46] | 0.2 | 205 |
| Cc1ccc(C2CC(=O)C(=C3SC(O)C(N(C)C)S3)C(=O)C2)o1 (centres unmarked) [Compound No. 47] | 1.6 | 430 |
